Test results: paper PMC11361584 (PLOS ONE, 2024)
Like-named read-outs stand apart in the source and are kept apart here. Values belong to the compound of their own block, whether it stands above or below them.

Experiments:
[1] = set-up: method as in PMID 12236477; settings: metabolites of omeprazole; cited from earlier work
[2] = Pharmacokinetics of omeprazole 40 mg alone and co-administered with levosulpiride 50 mg in healthy human volunteers (Phase-2); type: in vivo
Procedure: (§1) The developed method was applied for evaluation of pharmacokinetics drug-drug interaction between LSP and OMP in healthy human volunteers (n = 20). Both the drugs were administered to the healthy volunteers, their blood samples were collected at specified time points and analyzed for the drug content, using the developed method. Written consent form was signed by all the volunteers and purpose of the study was explained to them. They were physically examined and medical history was recorded. Age of the volunteers was 20–28 years, with mean body mass index (BMI) of […]. Complete blood count, creatinine clearance, and liver function tests of all the healthy human volunteers were performed. All the volunteers were non-smokers and had no history of addiction. They were instructed not to take any medicines for two weeks before the study.
(§2) The study was conducted according to the “World Medical Association Declaration of Helsinki-Ethical principles of medical research involving human subjects” and its amendments. This study was approved by the ethical committee, Department of Pharmacy, University of Swabi, KP, Pakistan (Application number F.NO.UOS/2022/Pharm.02). It was an open-label, randomized, crossover, pharmacokinetic interaction study. The volunteers were divided into two groups of same size (n = 10) and the trial was conducted in two phases and two sequences, as follows;
Phase-2 of the study was started after one month of the completion of Phase-1, as follows;
• Group-I: LSP 50 mg was given for 6 days twice a day and on the 7th day single dose of OMP 40 mg was administered • Group-II: OMP 40 mg was administered alone.
The blood was sampled at 0, 0.25, 0.5, 1, 2, 3, 4, 6, 8, and 12 hours.
After 14 days washout period, the pattern of drug administration was reversed as follows;
• Group-I: OMP 40 mg was administered alone. • Group-II: LSP 50 mg was given for 6 days twice a day and on the 7th day single dose of OMP 40 mg was administered
(§3) The pharmacokinetic parameters were determined using non-compartmental analysis using PK-Summit (version 2.0.2). The plasma concentration of the drug (ng/mL) versus time (hour) profile was constructed for both drugs when administered alone and in combination with each another. The pharmacokinetic parameters like peak plasma concentration (Cmax), time to reach peak plasma concentration (Tmax), area under the concentration-time curve from zero time to time-t (AUC0-t) i.e. AUC0-36 for LSP and AUC0-12 for OMP, area under the concentration-time curve from zero time to infinity (AUC0-∞), elimination half-life (t1/2) and clearance (CL) were determined.
(§4) All the analysis was performed as per ICH guidelines using mean, standard deviation, and relative standard deviation. In the pharmacokinetic studies, the parameter values were compared using a t-test. The P-value (t-test) was calculated using the IBM SPPS statistics version 20. A p < 0.05 (95% confidence interval) was considered to be significant.

[3] = Stability of spiked human plasma samples at LQC and HQC at different temperatures; type: in vitro ADME; settings: plasma sample
Procedure: For preparation of plasma samples, blood was collected from human volunteer and centrifuged to separate the cellular components. Plasma was de-proteinated with acetonitrile (two times volume of plasma) and was used for spiking the analytes. A liquid-liquid extraction method, reported by Jin et al., [18], with slight modification was used for extraction of LSP and OMP. Known amount of LSP, OMP and IS were added to plasma (1 mL), and vortexed for 30 sec. 4 ml of extraction solvent (mixture of ethyl acetate and dichloromethane in 4:1 by volume) was added, vortexed for 2 min and centrifuged at 3000 × g for 10 min. The supernatant (organic) layer was separated and dried under a gentle stream of nitrogen gas. The dried residue was reconstituted with 0.2 mL of mobile phase and an aliquot (20 μL) was injected into the HPLC system. Blank and zero samples were also treated in the same manner.
The stability of the samples was also evaluated at the level of LQC and HQC of both the analytes. The LQC were 10 and 30 ng/mL while the HQC were 120 and 1200 ng/mL for LSP and OMP, respectively. […] The sample stored at –20 °C involved freeze-thawed cycles at a gap of 12 hours between the two-consecutive freeze-thawed cycles.
The stability of the samples was evaluated for short term and relatively long term (one month). […] The % recovery was calculated by comparing the % recovery (concentration recovered) with freshly prepared spiked samples.

[4] = Pharmacokinetics of levosulpiride 50 mg alone and co-administered with omeprazole 40 mg in healthy human volunteers (Phase-1); type: in vivo; settings: for AUC(0-inf) / AUC(0-t) / Cmax / Tmax / half-life: human, plasma, oral; for CL/F: healthy human volunteers (n = 20), mean ± SD
Procedure: as §1, §2
Phase-1: First phase of the study consisted of two cycles with a wash out period of 14 days. During first phase of the study;
• Group-I: OMP 40 mg was administered twice a day for 6 days, and on the 7th day a single dose of LSP 50 mg was administered • Group-II: LSP 50 mg was administered alone as a single dose
Blood samples (3 mL) were collected at 0, 0.25, 0.5, 1, 2, 3, 4, 6, 8, 12, 24 and 36 hours. After 14 days washout period;
• Group-I: LSP 50 mg was administered alone • Group-II: OMP 40 mg, was administered twice a day for 6 days, on the 7th day LSP 50 mg was administered
as §3, §4

[5] = cited from earlier work
[6] = plasma, oral, omeprazole 40 mg alone, healthy human volunteers (n = 20), mean ± SD
[7] = levosulpiride with omeprazole versus alone, not significant

SMILES: COc1ccc2nc([S+]([O-])Cc3ncc(CO)c(OC)c3C)[nH]c2c1 (stereo not shown) [5-hydroxy omeprazole]
pharmacological activity [1]: pharmacologically inactive

AUC(0-inf) ([2]; human, plasma, oral): 6490 ± 1610 ng·h/mL | AUC(0-t) ([2]; human, plasma, oral): 5950 ± 1430 ng·h/mL | Tmax ([2]; human, plasma, oral): 1.85 ± 0.83 h | half-life ([2]; human, plasma, oral): 2.23 ± 1.03 h | CL/F ([2]; omeprazole 40 mg alone, healthy human volunteers (n = 20), mean ± SD): 7118.71 ± 2407.41 mL/h | CL/F ([2]; omeprazole 40 mg with levosulpiride 50 mg, healthy human volunteers (n = 20), mean ± SD): 7100.69 ± 2001.55 mL/h | AUC(0-t) ([2]; plasma, oral, omeprazole 40 mg alone, AUC0-12, healthy human volunteers (n = 20), mean ± SD): 6090 ± 1480 ng·h/mL | AUC(0-inf) [2, 6]: 6650 ± 1650 ng·h/mL | Tmax [2, 6]: 1.95 ± 0.99 h | half-life [2, 6]: 2.3 ± 0.94 h | Cmax ([2]; plasma, oral, omeprazole 40 mg single dose administered alone, healthy human volunteers (n = 20), mean ± SD): 1140 ± 262 ng/mL | % recovery (mean) ([3]; High QC (1200 ng/ml), 15 °C for 12 hours (autosampler temperature)): 99.31% | % recovery (mean) ([3]; High QC (1200 ng/ml), -20 °C for 24 hours): 99.48% | % recovery (mean) ([3]; High QC (1200 ng/ml), -20°C for one month, three freezed cycles): 98.80% | % recovery (mean) ([3]; High QC (1200 ng/ml), RT for 24 hours): 98.35% | % recovery (mean) ([3]; Low QC (30 ng/ml), 15 °C for 12 hours (autosampler temperature)): 98.66% | % recovery (mean) ([3]; Low QC (30 ng/ml), -20 °C for 24 hours): 99.33% | % recovery (mean) ([3]; Low QC (30 ng/ml), -20°C for one month, three freezed cycles): 98.73% | % recovery (mean) ([3]; Low QC (30 ng/ml), RT for 24 hours): 96.11%
SMILES: COc1ccc2[nH]c([S+]([O-])Cc3ncc(C)c(OC)c3C)nc2c1 (stereo not shown) [Omeprazole]

SMILES: COc1ccc2nc(S(=O)(=O)Cc3ncc(C)c(OC)c3C)[nH]c2c1 [omeprazole sulfone]
pharmacological activity [1]: pharmacologically inactive

AUC(0-inf) [4]: 2210 ± 577 ng·h/mL | AUC(0-t) [4]: 1770 ± 482 ng·h/mL | Cmax [4]: 118 ± 26.3 ng/mL | Tmax [4]: 3.71 ± 0.75 h | half-life [4]: 12.7 ± 4.76 h | AUC(0-inf) ([4]; 50 mg): 1870 ± 627 ng·h/mL | AUC(0-t) ([4]; 50 mg): 1540 ± 473 ng·h/mL | Cmax ([4]; 50 mg): 109 ± 24.9 ng/mL | Tmax ([4]; 50 mg): 3.8 ± 1.05 h | half-life ([4]; 50 mg): 13.3 ± 2.64 h | CL/F ([4]; levosulpiride 50 mg alone): 35832 ± 8402 mL/h | CL/F ([4]; levosulpiride 50 mg with omeprazole 40 mg): 30333 ± 6326 mL/h | increase of AUC0-t [4, 7]: 14.52% | increase of AUC0-∞ [4, 7]: 18.36% | increase of Cmax [4, 7]: 8.79% | reduction of CL [4, 7]: 15.34% | % recovery (mean) ([3]; High QC (120 ng/ml), 15 °C for 12 hours (autosampler temperature)): 99.67% | % recovery (mean) ([3]; High QC (120 ng/ml), -20 °C for 24 hours): 99.17% | % recovery (mean) ([3]; High QC (120 ng/ml), -20°C for one month, three freezed cycles): 98.33% | % recovery (mean) ([3]; High QC (120 ng/ml), RT for 24 hours): 98.00% | % recovery (mean) ([3]; Low QC (10ng/ml), 15 °C for 12 hours (autosampler temperature)): 98.36% | % recovery (mean) ([3]; Low QC (10ng/ml), -20 °C for 24 hours): 98.75% | % recovery (mean) ([3]; Low QC (10ng/ml), -20°C for one month, three freezed cycles): 96.90% | % recovery (mean) ([3]; Low QC (10ng/ml), RT for 24 hours): 96.80%
SMILES: CCN1CCC[C@H]1CNC(=O)c1cc(S(N)(=O)=O)ccc1OC [Levosulpiride]
elimination half-life ([5]; depending upon route of administration, dosage form and dose): 6 to 19 h | elimination half-life ([5]; orally administered LSP 25 mg): 12.0 h | elimination half-life ([5]; orally administered LSP 50 mg): 12.6 h | elimination half-life ([5]; orally administered LSP 100 mg): 14.3 h
